Assays:
ERK = ERK activation in adult mouse cardiac muscle cells; type: cell-based; details: low concentration, FIG. 3 left
Text: (§1) FIG. 3. A61603 protects adult cardiac muscle cells. In adult mouse cardiac muscle cells, A61603 at a low concentration activates ERK (left), and protects against a cardiotoxic cancer drug, (DOX) (right). These effects are not blocked by a beta-blocker, propranolol (Prop), which is current standard of care in heart failure therapy. That is, A61603 effects are additive to those of a beta-blocker. Knockout of the alpha-1A receptor (AKO) eliminates myocyte protection by A61603 (right), showing that the drug does indeed work through the alpha-1A, as expected.

[1] = test system: adult mouse cardiac muscle cells; experiment: Protection of adult mouse cardiac muscle cells against doxorubicin (DOX); type: cell-based
Text: as §1

[2] = 1 week subcutaneous infusion (osmotic minipump) in adult mice: BP and heart signaling; type: in vivo, mouse
Experimental: FIG. 5. A61603 activates heart signaling at a BP-neutral dose. A61603 was infused subcutaneously (osmotic minipump) for 1 week in adult mice, and BP was measured daily. There was no change in average BP at the low dose, in agreement with the intravenous (IV) route in another study, and with phenylephrine (PE) given in humans (left side). BP effects of A61603 are absent in the alpha-1A KO (AKO), again showing the selectivity of the drug for that receptor (left). At the end of 1 week, the heart was removed to measure ERK activation, and increases in heart mRNAs and area (size), reflecting protective (ERK) adaptive (mRNAs, area) effects on heart muscle cells. A61603 at the low dose of 10 ng/kg/d increased these endpoints.
The classic effect of alpha-1-agonists is to increase BP by stimulating smooth muscle cells to contract. It could be a disadvantage in heart failure (HF) therapy to increase BP excessively. On the other hand, all current recommended drugs in HF reduce BP, and a drug that increased BP slightly might have a strong therapeutic advantage. […] The foregoing experiments provided the rationale to test treatment with A61603 at 10 ng/kg/d in a mouse model of cardiomyopathy and HF.

[3] = Doxorubicin cardiomyopathy model in adult mice; type: in vivo, mouse
Experimental: FIG. 6. A61603 prevents doxorubicin cardiomyopathy. DOX was given to adult mice in a single intraperitoneal dose of 25 mg/kg. A61603 was infused subcutaneously (osmotic minipump) for 1 week (top left). We monitored mouse survival over the week, and at the end of 1 week measured heart cell damage and function.
In summary, the alpha-1A agonist A61603 is protective and adaptive in cardiac muscle cells in vitro and in vivo. […] A61603 protects against mortality and cardiomyopathy, by preventing cell death and fibrosis. We chose a model of cardiomyopathy caused by a cancer drug, the anthracycline doxorubicin (DOX). Cancer drug cardiotoxicity is a common and growing problem. We used the same protocol that tested A61603 BP and signaling effects (FIG. 5).

[4] = Ischemic, post-myocardial infarction (LAD ligation) cardiomyopathy model; type: in vivo, mouse
Text: FIG. 9. A61603 rescues ischemic, post-myocardial infarction (MI) cardiomyopathy. Mice had echo 4 weeks after LAD ligation (MI), at which time they were randomized to treatment with A61603, at the same low dose, or vehicle.
FIG. 10. A61603 in ischemic, post-MI cardiomyopathy improves growth and protection, and reduces fibrosis. Values are normalized to mice treated with vehicle. Mice treated with A61603 had smaller atria, less fibrosis, higher fractional shortening (FS), smaller left ventricle end diastolic diameter (LVEDD), and larger myocyte size in the surviving heart (MC CSA). The size of the MI was unchanged, as expected because treatment started 4 weeks after LAD ligation, by which time the MI had healed.
Studies in mice looking at alpha-1 agonist therapy, using A61603, in a model of heart failure and cardiomyopathy due to myocardial infarction (heart attack). We used an animal model of myocardial infarction to test whether the alpha-1A agonist A61603 could rescue (e.g. treat) cardiomyopathy, when treatment was initiated at some time after injury (e.g. after the acute period was complete). Rescue mimics what is seen commonly in the clinic, where patients are admitted with HF, caused by a cardiomyopathy that has been present for months or years. This model was a model of ischemic, post-myocardial infarction (MI) cardiomyopathy. Ischemic heart disease caused by coronary atherosclerosis is extremely common and ischemic and overload cardiomyopathies associated with these diseases comprise the largest group of patients with HF. We used a mouse model of coronary ligation to cause MI. The mouse coronary ligation was permanent, however, patients typically have some form of reperfusion (e.g. angioplasty). We used a mouse model where the MI is healed completely, which is typical for patients admitted with HF late after MI. A61603 treatment rescued (e.g treated) the cardiomyopathy, as measured by heart function (FIG. 9A-B).
The improvement in function caused by A61603 after MI was again due to direct effects on ardiac muscle cells (FIG. 10). In this case, the effect was to increase the size of muscle cells in the surviving heart wall, helping restore the total amount of contracting heart muscle. There was also less fibrosis than control. The smaller weight of the atria indicates lower pressures within the left ventricle, a beneficial functional outcome, and the smaller diameter of the left ventricle indicates less cardiac enlargement, also a beneficial outcome.

cardiac myocytes = experiment: Cardiac cell protective and adaptive (anabolic) effects in vitro, comparison of alpha-1-agonists; type: cell-based; details: neonatal rat and adult mouse cardiac myocytes, FIG. 1-3
α1A receptors = details: cited from earlier work
α1AR = details: Evans et al. (2011); cited from earlier work

CS(=O)(=O)Nc1c(O)ccc2c1CCCC2C1=NCCN1 (stereo not shown) [A61603, N-[1-(4,5-dihydro-1H-imidazol-2-yl)-6-hydroxy-tetralin-5-yl]methanesulfonamide]
ERK activation (ERK): activates ERK
protection against cardiotoxic cancer drug (DOX) ([1]; FIG. 3 right): protects
ERK activation and DOX protection in presence of beta-blocker propranolol ([1]; with propranolol (Prop)): not blocked
heart ERK activation ([2]; 10 ng/kg/d, end of 1 week): increased
heart area (size) ([2]; 10 ng/kg/d, end of 1 week): increased
heart mRNAs ([2]; 10 ng/kg/d, end of 1 week): increased
BP effects in alpha-1A KO (AKO) ([2]; alpha-1A KO mice, subcutaneous infusion 1 week): absent
average BP ([2]; low dose, subcutaneous infusion 1 week, BP measured daily): no change
survival after DOX ([3]; DOX 25 mg/kg ip single dose, A61603 sc infusion 1 week, vs vehicle): markedly improved
cell death by apoptosis (caspase 3/7 activity and TUNEL staining) ([3]; after DOX, end of 1 week): improved
cell death by necrosis (serum CK, creatine kinase) ([3]; after DOX, end of 1 week): improved
indices of myocardial fibrosis ([3]; after DOX, end of 1 week): improved
protective effect on survival in alpha-1A knockout (KO) ([3]; alpha-1A KO mice after DOX): lost
heart function by echocardiography (fractional shortening) ([3]; surviving mice, end of 1 week): improved
atria size ([4]; post-MI, normalized to vehicle): smaller atria
fibrosis ([4]; post-MI, normalized to vehicle): less fibrosis
left ventricle end diastolic diameter (LVEDD) ([4]; post-MI, normalized to vehicle): smaller
myocyte size in the surviving heart (MC CSA) ([4]; post-MI, normalized to vehicle): larger
fractional shortening (FS) ([4]; post-MI, normalized to vehicle, FIG. 10): higher
size of the MI ([4]; post-MI, treatment started 4 weeks after LAD ligation): unchanged
fractional shortening ([4]; treatment started 4 weeks after LAD ligation (MI), low dose, vs vehicle): stayed the same or improved
potency and efficacy relative to several other alpha-1-agonists (cardiac myocytes): more potent (i.e. worked at a lower dose) and efficacious (i.e. had a larger total effect)
potency at α1A receptors relative to α1B or α1D sites (α1A receptors; Knepper et al. (1995)): at least 35 fold
potency as α1A AR agonist relative to phenylephrine, methoxamine and midodrine (α1A receptors): more potent
cAMP accumulation through α1AR relative to cirazoline (α1AR): stronger stimulator

From patent US9364462B2, “Alpha-1-adrenergic receptor agonist therapy” (The Regents of the University of California, priority 2012, dated 2016)
